From ChEMBL document CHEMBL5532698, “2,3-Dihydroquinazolin-4(1H)-ones and quinazolin-4(3H)-ones as broad-spectrum cytotoxic agents and their impact on tubulin polymerisation” (RSC Med Chem, 2024)
Active and inactive are the calls of the source. The rule behind the calls is not given here.

Columns and labels:
[1] = target: Tubulin (Homo sapiens) (UniProt P68371+Q9H4B7+P0DPH7+P68366+Q13509+Q71U36+P04350+Q3ZCM7+P07437+P68363+Q9BQE3+Q6PEY2+Q13885+Q9BVA1+Q9BUF5); test: Induction of tubulin (unknown origin) polymerization assessed as microtubule formation by measuring increase in fluorescence at 10 uM by fluorometric analysis; assay type: protein-complex assay; conditions: filed as activator
[2] = test system: MIA PaCa-2; test: Antiproliferative activity against human MIA PaCa-2 cells assessed as cell growth inhibition incubated for 72 hrs by MTT assay; assay type: functional
[3] = test system: U-87 MG; test: Antiproliferative activity against human U87 cells assessed as cell growth inhibition at 25 uM incubated for 72 hrs by MTT assay relative to control; assay type: functional, U-87MG ATCC
[4] = test system: NCI-H460; test: Antiproliferative activity against human NCI-H460 cells assessed as cell growth inhibition at 25 uM incubated for 72 hrs by MTT assay relative to control; assay type: functional
[5] = Cytotoxicity against human MCF-10A cells assessed as cell growth inhibition at 25 uM incubated for 72 hrs by MTT assay relative to control; assay type: toxicity, cell-based
[6] = test system: HT-29; test: Antiproliferative activity against human HT-29 cells assessed as cell growth inhibition incubated for 72 hrs by MTT assay; assay type: functional
[7] = test system: A-431; test: Antiproliferative activity against human A-431 cells assessed as cell growth inhibition incubated for 72 hrs by MTT assay; assay type: functional
[8] = test system: NCI-H460; test: Antiproliferative activity against human NCI-H460 cells assessed as cell growth inhibition incubated for 72 hrs by MTT assay; assay type: functional
[9] = test system: BE(2)-C; test: Antiproliferative activity against human BE2C cells assessed as cell growth inhibition at 25 uM incubated for 72 hrs by MTT assay relative to control; assay type: functional
[10] = test system: MIA PaCa-2; test: Antiproliferative activity against human MIA PaCa-2 cells assessed as cell growth inhibition at 25 uM incubated for 72 hrs by MTT assay relative to control; assay type: functional
[11] = test system: A-431; test: Antiproliferative activity against human A-431 cells assessed as cell growth inhibition at 25 uM incubated for 72 hrs by MTT assay relative to control; assay type: functional
[12] = test system: U-87 MG; test: Antiproliferative activity against human U87 cells assessed as cell growth inhibition incubated for 72 hrs by MTT assay; assay type: functional, U-87MG ATCC
[13] = test system: DU-145; test: Antiproliferative activity against human DU-145 cells assessed as cell growth inhibition at 25 uM incubated for 72 hrs by MTT assay relative to control; assay type: functional
[14] = Cytotoxicity against human MCF-10A cells assessed as cell growth inhibition incubated for 72 hrs by MTT assay; assay type: toxicity, cell-based
[15] = test system: MCF7; test: Antiproliferative activity against human MCF7 cells assessed as cell growth inhibition incubated for 72 hrs by MTT assay; assay type: functional
[16] = Antiproliferative activity against human SJG2 cells assessed as cell growth inhibition incubated for 72 hrs by MTT assay; assay type: functional; conditions: SJ-G2
[17] = test system: A2780; test: Antiproliferative activity against human A2780 cells assessed as cell growth inhibition at 25 uM incubated for 72 hrs by MTT assay relative to control; assay type: functional
[18] = test system: MCF7; test: Antiproliferative activity against human MCF7 cells assessed as cell growth inhibition at 25 uM incubated for 72 hrs by MTT assay relative to control; assay type: functional
[19] = test system: DU-145; test: Antiproliferative activity against human DU-145 cells assessed as cell growth inhibition incubated for 72 hrs by MTT assay; assay type: functional
[20] = test system: BE(2)-C; test: Antiproliferative activity against human BE2C cells assessed as cell growth inhibition incubated for 72 hrs by MTT assay; assay type: functional
[21] = Antiproliferative activity against human SJG2 cells assessed as cell growth inhibition at 25 uM incubated for 72 hrs by MTT assay relative to control; assay type: functional; conditions: SJ-G2
[22] = test system: HT-29; test: Antiproliferative activity against human HT-29 cells assessed as cell growth inhibition at 25 uM incubated for 72 hrs by MTT assay relative to control; assay type: functional
[23] = test system: A2780; test: Antiproliferative activity against human A2780 cells assessed as cell growth inhibition incubated for 72 hrs by MTT assay; assay type: functional

| Structure (SMILES) | GI50 [2] | inhibition at 25 µM [3] | inhibition at 25 µM [4] | inhibition at 72 h, 25 µM [5] | GI50 [6] | GI50 [7] | GI50 [8] | inhibition at 25 µM [9] | inhibition at 25 µM [10] | inhibition at 25 µM [11] | GI50 [12] | inhibition at 25 µM [13] | GI50 at 72 h [14] | GI50 [15] | GI50 [16] | inhibition at 25 µM [17] | inhibition at 25 µM [18] | GI50 [19] | GI50 [20] | inhibition at 25 µM [21] | further results |
| --- | --- | --- | --- | --- | --- | --- | --- | --- | --- | --- | --- | --- | --- | --- | --- | --- | --- | --- | --- | --- | --- |
| CC(=O)O[C@H]1C(=O)[C@@]2(C)[C@H]([C@H](OC(=O)c3ccccc3)[C@]3(O)C[C@H](OC(=O)[C@H](O)[C@@H](NC(=O)c4ccccc4)c4ccccc4)C(C)=C1C3(C)C)[C@]1(OC(C)=O)CO[C@@H]1C[C@@H]2O |  |  |  |  |  |  |  |  |  |  |  |  |  |  |  |  |  |  |  |  | Activity [1]: Active |
| O=C1NC(c2ccccc2Br)Nc2ccccc21 (configuration not stated) | 4.2 µM | 80% | 95% | 94% | 2.4 µM | 2.3 µM | 3.6 µM | > 100% | 89% | > 100% | 10 µM | 100% | 4.3 µM | 3.7 µM | 3 µM | 96% | 82% | 4.3 µM | 2.5 µM | > 100% | inhibition at 25 µM [22]: > 100%; GI50 [23]: 2.5 µM |
| O=C1NC(c2ccc(Br)cc2)Nc2ccccc21 (configuration not stated) | 3.2 µM | 88% | 97% | 95% | 2.9 µM | 3.1 µM | 3.2 µM | > 100% | 90% | > 100% | 4.7 µM | > 100% | 4 µM | 3.6 µM | 2.5 µM | 99% | 89% | 3.3 µM | 2.6 µM | > 100% | inhibition at 25 µM [22]: > 100%; GI50 [23]: 3.1 µM |
| O=C1NC(C2CC=CCC2)Nc2ccccc21 (configuration not stated) | 12 µM | 67% | 91% | 89% | 5.4 µM | 3.8 µM | 11 µM | 97% | 82% | > 100% | 17 µM | 67% | 11 µM | 15 µM | 17 µM | 99% | 72% | 19 µM | 5.7 µM | 87% | inhibition at 25 µM [22]: > 100%; GI50 [23]: 3.9 µM |
| O=c1[nH]c(/C=C/c2cccc(O)c2)nc2ccccc12 | 2.9 µM | 73% | > 100% | 97% | 5.9 µM | 3 µM | 2.6 µM | > 100% | > 100% | > 100% | 8.9 µM | > 100% | 3.1 µM | 1.3 µM | 2.5 µM | > 100% | > 100% | 1.9 µM | 1.8 µM | > 100% | inhibition at 25 µM [22]: > 100%; GI50 [23]: 3.1 µM |
| O=c1[nH]c(/C=C/c2ccc(Br)cc2)nc2ccccc12 | 14 µM | 83% | 70% | 86% | 3.2 µM | 11 µM | 11 µM | 78% | 68% | 78% | 13 µM | 77% | 4.6 µM | 3.1 µM | 15 µM | 93% | > 100% | 8.9 µM | 6.4 µM | 76% | inhibition at 25 µM [22]: 94%; GI50 [23]: 3.6 µM |
| Cc1ccc(C2NC(=O)c3ccccc3N2)cc1 (configuration not stated) | 3.4 µM | > 100% | > 100% | 100% | 1.6 µM | 2.3 µM | 3.2 µM | 87% | 95% | > 100% | 2.6 µM | > 100% | 3.1 µM | 4 µM | 2.9 µM | > 100% | 90% | 3.1 µM | 1.9 µM | > 100% | inhibition at 25 µM [22]: > 100%; GI50 [23]: 2.3 µM |
| O=C1NC(/C=C/c2ccco2)Nc2ccccc21 (configuration not stated) | 3.6 µM | 99% | 93% | 100% | 2.2 µM | 2.1 µM | 3.3 µM | 100% | 93% | > 100% | 4.3 µM | 100% | 3.4 µM | 7.4 µM | 3 µM | > 100% | 83% | 4 µM | 2.6 µM | 100% | inhibition at 25 µM [22]: 90%; GI50 [23]: 3 µM |
| O=C1NC(c2cc3ccccc3o2)Nc2ccccc21 (configuration not stated) | 3.5 µM | 47% | 77% | 76% | 2.6 µM | 2.7 µM | 3.1 µM | 66% | 76% | ≥ 75% | 4.1 µM | ≥ 28% | 3.9 µM | 3.3 µM | 3 µM | ≥ 57% | 63% | 4.8 µM | 3.1 µM | ≥ 71% | inhibition at 25 µM [22]: ≥ 92%; GI50 [23]: 2.9 µM |
